Molecules are shown by their SMILES.

The nature of this series: method code SF-AS, from DOI: 10.1016/0223-5234(92)90004-k.
Molecule `COc1cc(SC)ccc1-c1cn2cccnc2n1` yielded a logP of 2.44.
With `COc1ccc(-c2cn3cccnc3n2)c(OC)c1`, the logP was found to be 1.94.
For `COc1cc(C(N)=O)ccc1-c1nc2cnccc2[nH]1` the value was 1.18.
`COc1cc(OS(C)(=O)=O)ccc1-c1cn2cccnc2n1` registered a logP of 1.05.
With `COc1cc(NS(C)(=O)=O)ccc1-c1cn2cccnc2n1` the figure was 0.72; with `COc1ccc(-c2nc3ncc(N)cc3[nH]2)c(OC)c1`, 1.62.
With `COc1cc(S(C)=O)ccc1-c1nc2ncc(N)cc2[nH]1` (stereo not given) the figure was 0.33.
For `COc1cc(C(N)=O)ccc1-c1cn2cccnc2n1` the value was 0.7; for `COc1ccc(-c2nc3ncccc3[nH]2)c(OC)c1`, 2.56; for `COc1ccc(-c2cn3cc(N)cnc3n2)c(OC)c1`, 1.68.

These data come from the SangsterLogP compilation.
